Source: patent US9790207B2, “Pan-genomic inhibitors of NS5A protein encoded by HCV, pharmaceutical compositions, intermediates for inhibitor synthesis, and their synthesis and application methods” (priority 2015, dated 2017)
Where a name gives a salt, the structure may show the parent alone. Read-outs that look alike come from different tables or passages of the source.

Assays:
[1] = test system: HCV gT1b replicon; assay: HCV replicon assay, gT1b; assay type: cell-based, Hepatitis C virus (HCV); conditions: Hepatitis C virus, GT1B, Huh-7, Huh7 replicon cells, mean value
Description: The HCV replicon assay was used to determine the antiviral activity of compounds of general formula 2 (test compounds). The test cell line used in the HCV Replicon Assay was the human hepatoma cell line Huh7 incorporating the HCV replicons synthesized by an outside vendor.
96-well plates were seeded with cells at a density of 7.5×10^3 cells per well in 50 μl of assay media. The compound stock solution was made up freshly in an assay medium (DMEM 1×, Cellgro; cat. #10-013-CV) as a 2× stock. A total of 11 serial 3-fold dilutions of test compounds were prepared from the 2× stock in the assay media ranging from 20 nM-0.2 pM final concentrations. At least 4 hours after seeding the cells, compound treatment was initiated by adding 50 μl of compound dilution to the plates. The final concentrations of compound therefore ranged from 10 nM to 0.1 pM when diluted 1:1 in culture media. The final DMSO concentration was 0.5%. Cells and inhibitors were incubated for 3 days at 37° C./5% CO2. The media was removed from the plates by gentle tapping. The cells were fixed with 100 μl 1:1 acetone:methanol for 1 minute, washed three times with PBS buffer, and then blocked with 150 μl/well 10% Fetal Bovine Serum (FBS) in PBS for 1 hour at room temperature. The cells were then washed three times with PBS buffer and incubated with 100 μl/well anti-hepatitis C core mAb (Affinity BioReagents; cat. # MA1-080, 1 mg/ml stock diluted 1:4,000 in 10% FBS-PBS) for 2 hours at 37° C. Then, the cells were washed three times with PBS and incubated with 100 μl/well HRP-Goat Anti-Mouse antibody (diluted 1:3.500 in 10% FBS-PBS) for 1 hour at 37° C. The cells were then washed three times with PBS and developed with an OPD solution, 100 μl/well (1 OPD tablet+12 ml citrate/phosphate buffer+5 μl 30% H2O2 per plate), for 30 minutes in the dark at room temperature. The reaction was stopped with 2N H2SO4 (100 μl/well), and the absorbance was measured at A490 X on a Victor^3 V 1420 multilabel counter (Perkin Elmer).

[2] = Cytotoxicity, cell viability by ATPLite Kit; assay type: cell-based, human; conditions: human, 10% FBS; for inhibition at 96 h: Huh7 cells (human hepatoma cell line), maximal inhibition, read-out: Cytotox gT1b 10% FBS max. inh.
Description: The cytotoxicity of the test compounds was studied in parallel using the same cell line, Huh7. Cell viability was determined using the ATPLite Kit (Perkin-Elmer, Boston, USA), according to manufacturer's instructions. 96-well black/transparent bottom plates were seeded with cells at a density of 7.5×10^3 cells per well in 50 μl medium. After 18 hours, compound treatment was initiated by adding 50 μl of compound dilution into the plates. Each compound dilution was tested in triplicates. The cells and inhibitors were then incubated for 96 hours at 37° C./5% CO2. The plates were washed twice with PBS (0.2 ml/well), and then lysed by adding lysis buffer, 0.05 ml/well (all reagents were included with the ATPLite Kit). After rocking for 5 min on a rocking platform, substrate buffer was added (0.05 ml/well). After additional 5-min incubation, the plates were kept in dark for 10 min, and the luminescence was read using TopCount NXT (Packard, Perkin Elmer). CC50 values for all test compounds were determined using XLfit 4.1 software (Table 2).

[3] = 10% FBS, read-out: gT1b 10% FBS, EC50 (pM) mean
[4] = 40% NHS, read-out: gT1b 40% NHS, EC50 (pM) mean

Row | SMILES | EC50 [1, 3] [pM] | EC50 [1, 4] [pM] | inhibition at 96 h [2] [%] | CC50 at 96 h ([2]; Huh7 human hepatoma cells, read-out: Cytotox gT1b 10% FBS CC50) [nM]
1 | COC(=O)N[C@H](C(=O)N1CCC[C@H]1c1ncc(C#CC#Cc2ccc(-c3cnc([C@@H]4CCCN4C(=O)[C@@H](NC(=O)OC)C(C)C)[nH]3)cc2-c2cccc(-c3ccccc3)c2)[nH]1)C(C)C [2(3)•2HCl, [(S)-1-((S)-2-{5-[4-(5-{2-[(S)-1-((S)-2-Methoxycarbonylamino-3-methyl-butyryl)-pyrrolidin-2-yl]-3H-imidazol-4-yl}-[1,1′; 3′,1″]terphenyl-2-yl)-buta-1,3-diynyl]-1H-imidazol-2-yl}-pyrrolidine-1-carbonyl)-2-methyl-propyl]-carbamic acid methyl ester dihydrochloride] | 1.24 | 17.1 | 29 | –
2 | COC(=O)N[C@H](C(=O)N1CCC[C@H]1c1ncc(-c2ccc(C#CC#Cc3cnc([C@@H]4CCCN4C(=O)[C@H](NC(=O)OC)c4ccccc4)[nH]3)c(-c3cccnc3)c2)[nH]1)C(C)C [2(16)•2HCl, [(S)-1-((S)-2-{5-[4-(4-{2-[(S)-1-((R)-2-Methoxycarbonylamino-2-phenyl-acetyl)-pyrrolidin-2-yl]-3H-imidazol-4-yl}-buta-1,3-diynyl)-3-pyridin-3-yl-phenyl]-1H-imidazol-2-yl}-pyrrolidine-1-carbonyl)-2-methyl-propyl]-carbamic acid methyl ester trihydrochloride] | 4.7 | 36.2 | 32 | –
3 | COC(=O)N[C@H](C(=O)N1CCC[C@H]1c1ncc(C#CC#Cc2ccc(-c3cnc([C@@H]4CCCN4C(=O)[C@@H](NC(=O)OC)C(C)C)[nH]3)cc2-c2cccc(C(C)(C)C)c2)[nH]1)C(C)C [2(2)•2HCl, [(S)-1-((S)-2-{5-[4-(3′-tert-Butyl-5-{2-[(S)-1-((S)-2-methoxycarbonylamino-3-methyl-butyryl)-pyrrolidin-2-yl]-3H-imidazol-4-yl}-biphenyl-2-yl)-buta-1,3-diynyl]-1H-imidazol-2-yl}-pyrrolidine-1-carbonyl)-2-methyl-propyl]-carbamic acid methyl ester dihydrochloride] | 1.67 | 6.6 | 38 | –
4 | COC(=O)N[C@H](C(=O)N1CCC[C@H]1c1ncc(-c2ccc(C#CC#Cc3cnc([C@@H]4CCCN4C(=O)[C@H](NC(=O)OC)c4ccccc4)[nH]3)c(-c3ccc(N4CCN(C)CC4)cc3)c2)[nH]1)C(C)C [2(15)•2HCl, [(S)-1-((S)-2-{5-[4′-(4-Methyl-piperazin-1-yl)-6-(4-{2-[(S)-1-((R)-2-methoxycarbonylamino-2-phenyl-acetyl)-pyrrolidin-2-yl]-3H-imidazol-4-yl}-buta-1,3-diynyl)-biphenyl-3-yl]-1H-imidazol-2-yl}-pyrrolidine-1-carbonyl)-2-methyl-propyl]-carbamic acid methyl ester tetrahydrochloride] | 3.65 | 23.9 | 82 | 16200
5 | COC(=O)N[C@H](C(=O)N1CCC[C@H]1c1ncc(-c2ccc(C#CC#Cc3cnc([C@@H]4CCCN4C(=O)[C@H](NC(=O)OC)c4ccccc4)[nH]3)c(-c3cccc(C(C)(C)C)c3)c2)[nH]1)C(C)C [2(10)•2HCl, [(S)-1-((S)-2-{5-[3′-tert-Butyl-6-(4-{2-[(S)-1-((R)-2-methoxycarbonylamino-2-phenyl-acetyl)-pyrrolidin-2-yl]-3H-imidazol-4-yl}-buta-1,3-diynyl)-biphenyl-3-yl]-1H-imidazol-2-yl}-pyrrolidine-1-carbonyl)-2-methyl-propyl]-carbamic acid methyl ester dihydrochloride] | 1.22 | 8.13 | 37 | –
6 | COC(=O)N[C@H](C(=O)N1CCC[C@H]1c1ncc(C#CC#Cc2ccc(-c3cnc([C@@H]4CCCN4C(=O)[C@H](NC(=O)OC)c4ccccc4)[nH]3)cc2-c2ccccc2)[nH]1)C(C)C [2(30)•2HCl, [(S)-1-((S)-2-{5-[4-(5-{2-[(S)-1-((R)-2-Methoxycarbonylamino-2-phenyl-acetyl)-pyrrolidin-2-yl]-3H-imidazol-4-yl}-biphenyl-2-yl)-buta-1,3-diynyl]-1H-imidazol-2-yl}-pyrrolidine-1-carbonyl)-2-methyl-propyl]-carbamic acid methyl ester dihydrochloride] | 2.1 | 25.3 | 33 | –
7 | COC(=O)N[C@H](C(=O)N1CCC[C@H]1c1ncc(C#CC#Cc2ccc(-c3cnc([C@@H]4CCCN4C(=O)[C@@H](NC(=O)OC)C(C)C)[nH]3)cc2-c2ccccc2)[nH]1)C(C)C [2(1)•2HCl, [(S)-1-((S)-2-{5-[4-(5-{2-[(S)-1-((S)-2-Methoxycarbonylamino-3-methyl-butyryl)-pyrrolidin-2-yl]-3H-imidazol-4-yl}-biphenyl-2-yl)-buta-1,3-diynyl]-1H-imidazol-2-yl}-pyrrolidine-1-carbonyl)-2-methyl-propyl]-carbamic acid methyl ester dihydrochloride] | 1.79 | 12.4 | 42 | –
8 | COC(=O)N[C@H](C(=O)N1CCC[C@H]1c1ncc(C#CC#Cc2ccc(-c3cnc([C@@H]4CCCN4C(=O)[C@@H](NC(=O)OC)C(C)C)[nH]3)cc2-c2ccc3ccccc3c2)[nH]1)C(C)C [2(4)•2HCl, [(S)-1-((S)-2-{5-[4-(4-{2-[(S)-1-((S)-2-Methoxycarbonylamino-3-methyl-butyryl)-pyrrolidin-2-yl]-3H-imidazol-4-yl}-2-naphthalen-2-yl-phenyl)-buta-1,3-diynyl]-1H-imidazol-2-yl}-pyrrolidine-1-carbonyl)-2-methyl-propyl]-carbamic acid methyl ester dihydrochloride] | 1.56 | 16.3 | 31 | –
9 | COC(=O)N[C@H](C(=O)N1CCC[C@H]1c1ncc(-c2ccc(C#CC#Cc3cnc([C@@H]4CCCN4C(=O)[C@H](NC(=O)OC)c4ccccc4)[nH]3)c(-c3ccc(C(C)(C)C)cc3)c2)[nH]1)C(C)C [2(11)•2HCl, [(S)-1-((S)-2-{5-[4′-tert-Butyl-6-(4-{2-[(S)-1-((R)-2-methoxycarbonylamino-2-phenyl-acetyl)-pyrrolidin-2-yl]-3H-imidazol-4-yl}-buta-1,3-diynyl)-biphenyl-3-yl]-1H-imidazol-2-yl}-pyrrolidine-1-carbonyl)-2-methyl-propyl]-carbamic acid methyl ester dihydrochloride] | 1.24 | 10.7 | 29 | –
10 | COC(=O)N[C@H](C(=O)N1CCC[C@H]1c1ncc(-c2ccc(C#CC#Cc3cnc([C@@H]4CCCN4C(=O)[C@H](NC(=O)OC)c4ccccc4)[nH]3)c(-c3cccc(-c4ccccc4)c3)c2)[nH]1)C(C)C [2(12)•2HCl, [(S)-1-((S)-2-{5-[6-(4-{2-[(S)-1-((R)-2-Methoxycarbonylamino-2-phenyl-acetyl)-pyrrolidin-2-yl]-3H-imidazol-4-yl}-buta-1,3-diynyl)-[1,1′;3′,1″]terphenyl-3-yl]-1H-imidazol-2-yl}-pyrrolidine-1-carbonyl)-2-methyl-propyl]-carbamic acid methyl ester dihydrochloride] | 1.79 | 13.4 | 29 | –
11 | COC(=O)N[C@H](C(=O)N1CCC[C@H]1c1ncc(-c2ccc(C#CC#Cc3cnc([C@@H]4CCCN4C(=O)[C@H](NC(=O)OC)c4ccccc4)[nH]3)c(-c3ccc(-c4ccccc4)cc3)c2)[nH]1)C(C)C [2(13)•2HCl, [(S)-1-((S)-2-{5-[6-(4-{2-[(S)-1-((R)-2-Methoxycarbonylamino-2-phenyl-acetyl)-pyrrolidin-2-yl]-3H-imidazol-4-yl}-buta-1,3-diynyl)-[1,1′;4′,1″]terphenyl-3-yl]-1H-imidazol-2-yl}-pyrrolidine-1-carbonyl)-2-methyl-propyl]-carbamic acid methyl ester dihydrochloride] | 1.61 | 14.4 | 24 | –
